Assay [1] has as its target T1, HPK1 (Homo sapiens, UniProt Q92918).
T1 sequence (Q92918 1-346 limits assumed): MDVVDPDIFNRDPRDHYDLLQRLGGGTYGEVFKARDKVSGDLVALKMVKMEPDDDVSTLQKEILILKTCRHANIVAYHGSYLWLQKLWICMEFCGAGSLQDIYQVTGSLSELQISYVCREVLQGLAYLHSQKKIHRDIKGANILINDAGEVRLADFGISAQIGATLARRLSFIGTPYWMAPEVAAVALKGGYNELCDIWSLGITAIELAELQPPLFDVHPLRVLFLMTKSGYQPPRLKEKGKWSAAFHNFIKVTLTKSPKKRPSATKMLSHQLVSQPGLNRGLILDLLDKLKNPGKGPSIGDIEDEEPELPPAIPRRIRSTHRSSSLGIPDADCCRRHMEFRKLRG
Nature of the assay: HPK1 kinase activity assay (ADP-Glo). As to conditions: HPK1 Kinase activity IC50 (nM), 1 nM HPK1, 10 μM ATP, 0.1 μg/μL MBP. Background: In ADP-Glo the light output rises with the ADP produced.

For assay [2], the target named is HPK1 (Homo sapiens, UniProt Q92918). Kind of assay: SLP76 phosphorylation assay (intracellular HPK1 inhibitory activity, p-SLP76 Ser376 sandwich ELISA). The note with it: p-SLP76 IC50(nM), Jurkat, Clone E6-1 cells; 1 h compound pre-incubation, anti-CD3 beads stimulation 20 min; SLP76 phosphorylation at S376.
Target sequence in this assay (Q92918 whole entry): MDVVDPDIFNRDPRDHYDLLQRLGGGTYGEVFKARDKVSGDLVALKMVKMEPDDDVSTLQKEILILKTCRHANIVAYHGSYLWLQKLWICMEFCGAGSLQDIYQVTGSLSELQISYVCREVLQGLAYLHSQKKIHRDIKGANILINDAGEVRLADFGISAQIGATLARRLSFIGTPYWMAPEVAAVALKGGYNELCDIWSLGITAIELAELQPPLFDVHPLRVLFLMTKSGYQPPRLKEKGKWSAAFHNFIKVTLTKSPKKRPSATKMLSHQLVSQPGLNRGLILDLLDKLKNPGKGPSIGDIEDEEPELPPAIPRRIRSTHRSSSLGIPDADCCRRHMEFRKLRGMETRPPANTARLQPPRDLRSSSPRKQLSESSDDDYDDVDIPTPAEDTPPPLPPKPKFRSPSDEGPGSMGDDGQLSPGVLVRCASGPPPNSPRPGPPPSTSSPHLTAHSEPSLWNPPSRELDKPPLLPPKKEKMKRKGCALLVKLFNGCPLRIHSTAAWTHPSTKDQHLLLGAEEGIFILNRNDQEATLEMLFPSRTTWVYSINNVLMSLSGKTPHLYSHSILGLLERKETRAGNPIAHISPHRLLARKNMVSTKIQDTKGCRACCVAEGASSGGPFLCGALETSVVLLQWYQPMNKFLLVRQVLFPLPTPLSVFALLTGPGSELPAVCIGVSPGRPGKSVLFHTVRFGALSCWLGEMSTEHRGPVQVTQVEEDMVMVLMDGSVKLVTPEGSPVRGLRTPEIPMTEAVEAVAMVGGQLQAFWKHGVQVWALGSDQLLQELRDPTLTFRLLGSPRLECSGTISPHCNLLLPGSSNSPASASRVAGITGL
Procedure: Intracellular HPK1 inhibitory activity was tested by the detection of SLP76 phosphorylation at S376.
Preparation of 1000× drug stock plate: a 1000× compound stock plate was prepared. […] The compound stock plate was sealed with a sealing film and stored in a −20° C. refrigerator for later use.
Preparation of Beads wash buffer: 0.1 mL FBS and 0.4 mL 0.5 M EDTA (with a final concentration of 2 mM) were added to 100 mL PBS and stored in a 4° C. refrigerator for later use.
100× Protease Inhibitor Cocktail in 1/20 total volume was added and stored on wet ice for later use. The buffer was ready to use.
Cell inoculation and dosing: the 1000× drug stock plate was taken and melted at room temperature in the dark. […] Jurkat cells in the logarithmic growth phase were selected and collected. […] The cells were inoculated into a 96-well plate (the volume was 90 μL per well), and a blank control well (without cells inoculation, and in which 110 μL of medium was added) was set. 10 μL of a drug-containing culture medium (10×) was transferred from the 10× drug intermediate plate into the 96-well cell plate (with a final concentration of 0.1% DMSO), and set a DMSO control group (in which 0.1% DMSO was added to the treated cells), a stimulated control group (in which 10 μL of culture medium was added to treat cells) and an unstimulated group (in which 10 μL of culture medium was added to treat cells). The wells were duplicated, gently patted, mixed, and then placed into a 5% CO2 incubator at 37° C. for 1 h.
Anti-CD3 beads stimulation: Dynabeads anti-human CD3 was taken, shaken, and mixed for 60 s. The required volume of beads was pipetted, and an equal volume or at least 1 mL of washing solution was added to wash once. Fresh complete medium was then added to resuspend and adjust the density of the beads to 4×10^7/mL, and the beads were placed on ice for later use. At the end of drug pre-incubation, the cell culture plate was taken out. 10 μL Dynabeads anti-human CD3 was added to each well to treat the cells, and 10 μL the culture medium was added to the unstimulated group. The cell culture plate was shaken to mix well at 2500 rpm for 10 s, and then placed into a 5% CO2 incubator at 37° C. and continued to culture for 20 min.
Detection of p-SLP76 protein level. PathScan Phospho-SLP-76 (Ser376) Sandwich ELISA Kit was applied to detect p-SLP76 protein level. At the end of the Anti-CD3 beads stimulation, the cell culture plate was removed from the incubator. […] After lysis, the cell culture plate was centrifuged at 4° C., 400×g for 5 min. 25 μL of sample and 75 μL of sample diluent were added to each well, and the plate was placed in a 5% CO2 incubator at 37° C. for 2 h. The subsequent detection steps were carried out following the kit instructions, and the absorbance (OD value) of each well was read at 450 nm by a microplate reader.

As for `CCN(CC)Cc1cc(-c2cnc3[nH]cc(C)c3c2)cc2c1COCC2` [Compound Z110, N-ethyl-N-((6-(3-methyl-1H-pyrrolo[2,3-b]pyridin-5-yl)isochroman-8-yl)methyl)ethanamine], the IC50 in assay [1] stood at 26.9 nM; in assay [2] it was 2840 nM.
The corresponding values for `Cc1c[nH]c2ncc(-c3cc4c(c([C@@H]5CCCN5)c3)CN(C(=O)c3cnn(C(F)F)c3)CC4)cc12` [Compound Z336, (S)-(1-(difluoromethyl)-1H-pyrazol-4-yl)-[6-(3-methyl-1H-pyrrolo[2,3-b]pyridin-5-yl)-8-[pyrrolidin-2-yl]-3,4-dihydroisoquinolin-2(1H)-yl]methanone] are 0.36 nM and 174 nM.
Turning to `Cc1c[nH]c2ncc(-c3cc4c(c([C@@H]5CCCN5)c3)CN(C(=O)N3CCC(F)(F)CC3)CC4)cc12` [Compound Z440, (S)-(4,4-difluoropiperidin-1-yl)(6-(3-methyl-1H-pyrrolo[2,3-b]pyridin-5-yl)-8(pyrrolidin-2-yl)-3,4-dihydroisoquinolin-2(1H)-yl)methanone], the figures for the IC50 in assay [1] and in assay [2] were 0.37 nM and 142 nM, respectively.
For `COCC(=O)N1CCc2cc(-c3cnc4[nH]cc(C(C)C)c4c3)cc([C@@H]3CCCN3)c2C1` [Compound Z404], the IC50 was 0.32 nM in assay [1] and 113 nM in assay [2].
Turning to `Cc1c[nH]c2ncc(-c3cc4c(c(CN(C)C)c3)C(=O)N(C)CC4)cc12` [Compound Z186, 8-((dimethylamino)methyl)-2-methyl-6-(3-methyl-1H-pyrrolo[2,3-b]pyridin-5-yl)-3,4-dihydroisoquinolin-1(2H)-one], the results for the IC50 in assay [1] and in assay [2] were 34.2 nM and 3760 nM, respectively.
For `Cc1nn(C)cc1C(=O)N1CCc2cc(-c3cnc4[nH]cc(C)c4c3)cc([C@@H]3CCCN3)c2C1` [Compound Z282, (S)-(1,3-dimethyl-1H-pyrazol-4-yl)(6-(3-methyl-1H-pyrrolo[2,3-b]pyridin-5-yl)-8-(pyrrolidin-2-yl)-3,4-dihydroisoquinolin-2(1H)-yl)methanone], the results for the IC50 in assay [1] and in assay [2] were 0.38 nM and 471 nM, respectively.
For `Cc1c[nH]c2ncc(-c3cc4c(c([C@@H]5CCCN5)c3)CN(C(=O)c3ccncc3)CC4)cc12` [Compound Z124, (S)-(6-(3-methyl-1H-pyrrolo[2,3-b]pyridin-5-yl)-8-(pyrrolidin-2-yl)-3,4-dihydroisoquinolin-2(1H)-yl) (pyridin-4-yl)methanone], the IC50 in assay [1] stood at 0.33 nM; in assay [2], 260 nM.

As usually defined, the IC50 is the concentration that inhibits the measured activity by half.

Values taken from patent US20240182465A1 (GENFLEET THERAPEUTICS (SHANGHAI) INC., priority 2021, published 2024).
